Results reported in ChEMBL document CHEMBL1201862, “PubChem BioAssay data set” (2004).
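Growth conditions: 96-well plates. Treatment: test compound, 48 hours, 5 concentrations. Analysis: linear interpolation between bracketing concentrations; unreached endpoints set to highest concentration. Here, GI50 denotes the concentration required for 50% inhibition of growth.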 Activity calls are given as the source filed them. No stated cut-off is given here; in the data, active = GI50 up to about 1.1 µM and inactive = higher. Where a SMILES comes first, the peptide text is derived from it. The star is where a group is joined. Fmoc = O=C(OCC1c2ccccc2-c2ccccc21)*; OBn = c1ccc(CO*)cc1; tBu = CC(C)(C)*

Legend:
Assay in all cases: NCI-60 cell line screen, 48 h
SF-295 = system: SF-295
SF-268 = system: SF-268
786-0 = system: 786-0
MOLT-4 = system: MOLT-4
A549 = system: A549
OVCAR-3 = system: OVCAR-3
SN12C = system: SN12C
HCT-116 = system: HCT-116
M14 = system: M14
CCRF-CEM = system: CCRF-CEM
IGROV-1 = system: IGROV-1
NCI-H226 = system: NCI-H226
HOP-62 = system: HOP-62
DLD-1 = system: DLD-1
SF-539 = system: SF-539
SK-MEL-5 = system: SK-MEL-5
SK-OV-3 = system: SK-OV-3
MCF7 = system: MCF7
PC-3 = system: PC-3
A498 = system: A498

Row | SMILES | GI50 (SF-295) | GI50 (SF-268) | GI50 (786-0) | GI50 (MOLT-4) | GI50 (A549) | GI50 (OVCAR-3) | GI50 (SN12C) | GI50 (HCT-116) | GI50 (M14) | GI50 (CCRF-CEM) | GI50 (IGROV-1) | GI50 (NCI-H226) | GI50 (HOP-62) | GI50 (DLD-1) | GI50 (SF-539) | GI50 (SK-MEL-5) | GI50 (SK-OV-3) | GI50 (MCF7) | GI50 (PC-3) | GI50 (A498)
1 | CCN(CC)c1ccc(/N=C2/C=CC(=O)c3ncccc32)c(C)c1 | 10.7 µM (inactive) | 8.32 µM (inactive) | 5.02 µM (inactive) | 2 µM (inactive) | 11.2 µM (inactive) | 3.33 µM (inactive) | 7.38 µM (inactive) | 2.47 µM (inactive) | 3.02 µM (inactive) | 2.09 µM (inactive) | 6.65 µM (inactive) | 18.5 µM (inactive) | 20.2 µM (inactive) | 3.42 µM (inactive) | 5.56 µM (inactive) | 5.53 µM (inactive) | 20 µM (inactive) |  |  | 
2 | CC(C)Oc1c(-c2ccc(F)cc2)c(O)c2c3c1oc(=O)n3C=CC2C (stereo unspecified) | 15.2 µM (inactive) | 17.3 µM (inactive) | 14.7 µM (inactive) | 6.07 µM (inactive) | 13 µM (inactive) | 14.4 µM (inactive) | 11.5 µM (inactive) | 12.9 µM (inactive) | 15.1 µM (inactive) | 11 µM (inactive) | 15.3 µM (inactive) | 13.9 µM (inactive) | 14.8 µM (inactive) |  | 13.4 µM (inactive) | 10.8 µM (inactive) | 24 µM (inactive) | 11.3 µM (inactive) | 7.05 µM (inactive) | 15 µM (inactive)
3 | [O-][n+]1c2cc(CN3CCOCC3)c(CN3CCOCC3)cc2[n+]([O-])c2c(O)cccc21 | 0.478 µM (active) | 1.05 µM (active) | 1.41 µM (inactive) | 0.627 µM (active) |  | 5.15 µM (inactive) | 2.87 µM (inactive) | 1.81 µM (inactive) | 3.64 µM (inactive) | 0.427 µM (active) | 5 µM (inactive) | 8.65 µM (inactive) | 3.75 µM (inactive) | 2.12 µM (inactive) | 1.08 µM (active) |  | 4.13 µM (inactive) |  |  | 11 µM (inactive)
4 | CC[C@@H]1CC[C@@H]2[C@H](CC[C@]3(C)[C@@H](OC(C)=O)CC[C@@H]23)[C@H]1C(=O)OC | 21 µM (inactive) | 23.4 µM (inactive) | 23.4 µM (inactive) | 19.5 µM (inactive) | 24.4 µM (inactive) | 19.4 µM (inactive) | 25.2 µM (inactive) | 17.9 µM (inactive) | 19.6 µM (inactive) | 22.1 µM (inactive) | 24.8 µM (inactive) | 18.8 µM (inactive) | 24.9 µM (inactive) |  | 19.2 µM (inactive) | 14.6 µM (inactive) | > 100 µM (inactive) | 25 µM (inactive) | 23.7 µM (inactive) | > 100 µM (inactive)
5 | CN(C)CCNC(=O)c1cccc2c(Nc3ccc(S(=O)(=O)N=C(N)N)cc3)c3ccccc3nc12 | 17.3 µM (inactive) | 7.24 µM (inactive) | 18 µM (inactive) | 2.03 µM (inactive) | 10.6 µM (inactive) |  | 5.15 µM (inactive) | 25.8 µM (inactive) | 30.8 µM (inactive) | 2.57 µM (inactive) | 7.1 µM (inactive) | 2.19 µM (inactive) | 11.3 µM (inactive) | 69.8 µM (inactive) | 11.3 µM (inactive) | 13.9 µM (inactive) |  |  |  | 
6 | COc1ccc2c(CCNC(C)=O)c(C(C)=O)[nH]c2c1 | > 100 µM (inactive) | 48.4 µM (inactive) | > 100 µM (inactive) | > 100 µM (inactive) | > 100 µM (inactive) | > 100 µM (inactive) | > 100 µM (inactive) | > 100 µM (inactive) | > 100 µM (inactive) | > 100 µM (inactive) | > 100 µM (inactive) | 71.4 µM (inactive) | > 100 µM (inactive) | > 100 µM (inactive) | > 100 µM (inactive) |  |  |  |  | > 100 µM (inactive)
7 | CSc1nc2[nH]c(=O)c(C)nc2c(=O)[nH]1 | > 100 µM (inactive) | > 100 µM (inactive) | > 100 µM (inactive) | > 100 µM (inactive) | > 100 µM (inactive) | > 100 µM (inactive) | > 100 µM (inactive) | > 100 µM (inactive) | > 100 µM (inactive) | > 100 µM (inactive) | > 100 µM (inactive) |  | > 100 µM (inactive) | > 100 µM (inactive) |  | > 100 µM (inactive) | > 100 µM (inactive) |  |  | > 100 µM (inactive)
8 | O=c1[nH]c(=S)c2cc3c(=S)[nH]c(=O)n(CCO)c3nc2n1CCO | > 100 µM (inactive) | > 100 µM (inactive) | > 100 µM (inactive) | > 100 µM (inactive) | > 100 µM (inactive) | > 100 µM (inactive) | > 100 µM (inactive) | > 100 µM (inactive) | > 100 µM (inactive) | > 100 µM (inactive) | > 100 µM (inactive) | > 100 µM (inactive) | > 100 µM (inactive) |  | > 100 µM (inactive) | > 100 µM (inactive) | > 100 µM (inactive) | > 100 µM (inactive) | > 100 µM (inactive) | > 100 µM (inactive)
9 | O=C1Nc2ccccc2/C1=N/NC(=O)c1ccccc1O | 27.9 µM (inactive) | 44.4 µM (inactive) | 53.3 µM (inactive) | 29 µM (inactive) | 55.3 µM (inactive) | 85.3 µM (inactive) | 35.2 µM (inactive) | 36.8 µM (inactive) | 50.1 µM (inactive) | 33.4 µM (inactive) |  | 33.2 µM (inactive) | 57.3 µM (inactive) | 29.3 µM (inactive) | 41.4 µM (inactive) |  | 12.1 µM (inactive) |  |  | 23.5 µM (inactive)
10 | CC(OC(C)(C)C)C(NC(=O)OCC1c2ccccc2-c2ccccc21)C(=O)NC(Cc1ccccc1)C(=O)OCc1ccccc1 (stereo unspecified) (Fmoc-Thr(tBu)-Phe-OBn; configuration not given here) | > 100 µM (inactive) | > 100 µM (inactive) | > 100 µM (inactive) | > 61.9 µM (inactive) | > 100 µM (inactive) | > 100 µM (inactive) | > 100 µM (inactive) | > 100 µM (inactive) | > 100 µM (inactive) | > 100 µM (inactive) | > 100 µM (inactive) | > 100 µM (inactive) | > 93.8 µM (inactive) |  | > 100 µM (inactive) | > 100 µM (inactive) | > 100 µM (inactive) | > 100 µM (inactive) | > 100 µM (inactive) | > 100 µM (inactive)
11 | Cc1cc2cc3cc(C)c(N)cc3nc2cc1N [ACRIDINE YELLOW] | 0.693 µM (active) | 0.593 µM (active) | 0.416 µM (active) | 0.237 µM (active) | 0.509 µM (active) | 0.522 µM (active) | 0.448 µM (active) | 0.208 µM (active) | 3.53 µM (inactive) | 0.383 µM (active) | 0.244 µM (active) | 0.869 µM (active) | 0.465 µM (active) |  | 1.01 µM (active) | 2.27 µM (inactive) | 1.34 µM (inactive) | 0.475 µM (active) | 1.06 µM (active) | 0.619 µM (active)
